According to US20250188030A1, “Biphenyl and Phenylpyridine Compounds” (Pfizer Inc., priority 2023, published 2025):
pIC50, pKi: −log10 of the molar value. Where two headings read alike, the source gives them in different places.

Experiments:
KAT2A = KAT2A (Homo sapiens (Human), UniProt Q92830); test: KAT2A acetyltransferase biochemical assay (RapidFire mass spectrometry, AcCoA to CoA)
H3K9AC (HT1080 cells) = test: H3K9AC Sandwich ELISA Assay in HT1080 cells (KAT2A primary cell-based screening assay); design: species or system Human
In short: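 HT1080 fibrosarcoma cells seeded 16 h, then treated 24 h at 37 °C with 10-point 1:3 compound dilutions (top 10 µM final, 0.1% DMSO). Acid lysates neutralized with butyrate/PMSF; H3K9ac measured by total-H3-capture sandwich ELISA with luminescent HRP readout, IC50 by four-parameter fit.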

MM.1S cells = test: MM1.S 10 Day Proliferation Assay (CellTiter-Glo); format: cell-based, Human
Procedure: Human B lymphoblast cell line MM.1S was obtained from American Type Culture Collection (ATCC), Manassas, VA USA, Cat. MM.1S (ATCC® CRL-2974™). Cells were cultured in RPMI (Thermo Fisher Scientific/Gibco Life Technologies Cat. #111875-093) plus 10% (v/v) FBS (Thermo Fisher Scientific/Gibco Life Technologies Cat. #26140-079) and 1% Penicillin-Streptomycin (Thermo Fisher Scientific/Gibco Life Technologies Cat. #15070063) at 37° C. in 5% CO2.
MM1.S cells were trypsinized cell viability count performed, and cells suspended in complete media at 5,556 cells/ml. Cells were then seeded (90 μl/well) into a 96-well round black/clear bottom, ULA (Ultra-Low Attachment surface plate (Corning cat #4520) at a density of 500 cells/well. Cells were then incubated for 16 hours at 37° C. and 5% CO2. Compound dilution plates were prepared in 96-well, clear U-bottom, polypropylene plates (Corning 3365) in 100% DMSO at 10 mM stock concentration in duplicate wells, using a 10-point serial dilution (1:3 dilutions). Compounds were diluted to 1:100 in growth medium. Then 10 μl of diluted compounds were added to each well of the cell plates using a Beckman FX liquid handling system such that the highest compound concentration tested was 10 μM final, with a 0.1% final DMSO concentration in the total volume of 100 μl. Plates were incubated for 10 total days at 37° C. and 5% CO2. Fresh media containing compound was refreshed at 5 days treatment.
Finally, the treatment plates were removed from the incubator and 100 μl of CellTiter-Glo Luminescent reagent was added to each well, and plates were equilibrated in the dark for 30 minutes. Plates were read on the PHERAstar plate reader using the 96-well with Luminescent reading mode. IC50 values were calculated using a four-parameter fit with GraphPad Prism version 9.5.1 or in house modified IDBS ActivityBase data analyzing package.

[1] = KAT2A Ki at 1 μM AcCoA, 5 μM H3 1-21 peptide, 0.5 nM KAT2A, 90-minute reaction
[2] = Homo sapiens, HT-1080, H3K9AC sandwich ELISA
[3] = read-out: KAT2A Ki at 1 μM AcCoA, 5 μM H3 1-21 peptide, 0.5 nM KAT2A, 90-minute reaction

Sequence of KAT2A (Q92830 whole entry): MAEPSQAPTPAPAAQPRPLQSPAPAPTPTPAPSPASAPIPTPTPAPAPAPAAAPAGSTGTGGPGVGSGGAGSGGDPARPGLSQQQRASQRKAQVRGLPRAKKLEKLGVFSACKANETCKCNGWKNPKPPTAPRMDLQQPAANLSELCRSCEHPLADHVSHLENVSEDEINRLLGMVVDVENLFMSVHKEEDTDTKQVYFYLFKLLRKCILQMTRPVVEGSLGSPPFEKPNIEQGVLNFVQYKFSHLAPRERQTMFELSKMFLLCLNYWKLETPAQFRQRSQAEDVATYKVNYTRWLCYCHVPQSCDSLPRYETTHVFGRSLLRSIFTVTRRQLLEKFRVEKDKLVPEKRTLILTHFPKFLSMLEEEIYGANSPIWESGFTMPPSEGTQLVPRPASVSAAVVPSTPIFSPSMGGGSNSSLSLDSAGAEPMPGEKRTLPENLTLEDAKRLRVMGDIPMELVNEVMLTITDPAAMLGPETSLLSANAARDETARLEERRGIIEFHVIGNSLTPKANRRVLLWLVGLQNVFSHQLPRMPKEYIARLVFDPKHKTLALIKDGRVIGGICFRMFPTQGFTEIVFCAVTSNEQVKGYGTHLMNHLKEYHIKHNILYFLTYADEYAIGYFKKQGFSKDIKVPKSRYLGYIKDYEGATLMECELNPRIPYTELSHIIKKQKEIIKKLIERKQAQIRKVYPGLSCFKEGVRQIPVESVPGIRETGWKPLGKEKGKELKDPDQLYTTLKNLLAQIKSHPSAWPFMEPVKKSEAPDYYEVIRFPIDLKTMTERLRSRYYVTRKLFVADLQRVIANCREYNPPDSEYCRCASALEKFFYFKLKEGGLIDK

Row | Compound | pKi (KAT2A; [1]) | pIC50 (H3K9AC (HT1080 cells); [2]) | pIC50 (MM.1S cells; Homo sapiens, MM1.S, 240 h) | pKi (KAT2A; [3]) | pIC50 (H3K9AC (HT1080 cells); H3K9AC sandwich ELISA) | pIC50 (MM.1S cells)
1 | CCc1c(F)cccc1-c1cc(C(C)(C)C(=O)NS(=O)(=O)C(C)C)ccc1O[C@@H]1CC[C@@H](NC(=O)[C@@]2(F)CNCC(C)(C)C2)C1 (single isomer, unassigned) [Example C45] |  |  | 7.28 | 9.96 | 8.02 | 
2 | C[C@@H](C(=O)O)c1ccc(O[C@@H]2CC[C@@H](NC(=O)[C@@H]3CC(C)(C)CN3C)C2)c(-c2cccc(F)c2C2CCC2)c1 (single isomer, unassigned) [Example D13] |  | 7.35 | 6.38 | 7.97 |  | 
3 | C[C@H](C(=O)O)c1ccc(O[C@@H]2CC[C@@H](NC(=O)[C@@H]3CC(C)(C)CN3C)C2)c(-c2cccc(F)c2C2CCC2)c1 (single isomer, unassigned) [Example D14] |  | 7.59 | 6.77 | 8.08 |  | 
4 | CC(C(=O)NS(C)(=O)=O)c1ccc(O[C@@H]2CC[C@@H](NC(=O)[C@@H]3CC(C)(C)CN3C)C2)c(-c2cccc(F)c2C2CCC2)c1 (single isomer, unassigned) [Example E8] | 9.54 | 8.32 |  |  |  | 7.78
5 | CC(C(=O)NS(C)(=O)=O)c1ccc(O[C@@H]2CC[C@@H](NC(=O)[C@@H]3CC(C)(C)CN3C)C2)c(-c2cccc(F)c2C2CCC2)c1 (single isomer, unassigned) [Example E9] | 9.68 |  |  |  | 8.41 | 8.20
6 | O=C(O)Cc1ccc(OC[C@H]2C[C@H](NC(=O)[C@@]3(F)CNC4(CCC4)C3)C2)c(-c2cccc(F)c2C2CCC2)c1 (single isomer, unassigned) [Example F3, (2′-cyclobutyl-3′-fluoro-6-{[(1r,3r)-3-{[(7ξ)-7-fluoro-5-azaspiro[3.4]octane-7-carbonyl]amino}cyclobutyl]methoxy}[1,1′-biphenyl]-3-yl)acetic acid] |  | 8.07 | 7.02 | 8.61 |  | 
7 | CCS(=O)(=O)NC(=O)C(C)(C)c1ccc(OC[C@H]2C[C@H](NC(=O)[C@@]3(F)CNC4(CCC4)C3)C2)c(-c2cccc(F)c2C2CCC2)c1 (single isomer, unassigned) [Example G5, (7Rξ)-N-{(1r,3r)-3-[({2′-cyclobutyl-5-[1-(ethanesulfonamido)-2-methyl-1-oxopropan-2-yl]-3′-fluoro[1,1′-biphenyl]-2-yl}oxy)methyl]cyclobutyl}-7-fluoro-5-azaspiro[3.4]octane-7-carboxamide] |  | 8.02 | 7.44 | 9.77 |  | 
8 | C[C@@H](C(=O)O)c1nn(C)cc1-c1ccc(O[C@@H]2CC[C@@H](NC(=O)[C@]3(F)CNC4(CCC4)C3)C2)c(-c2cccc(F)c2C2CCC2)c1 (single isomer, unassigned) [Example J4] |  |  | 7.63 | 9.52 | 7.73 | 
9 | C[C@H](C(=O)O)c1nn(C)cc1-c1ccc(O[C@@H]2CC[C@@H](NC(=O)[C@]3(F)CNC4(CCC4)C3)C2)c(-c2cccc(F)c2C2CCC2)c1 (single isomer, unassigned) [Example J5] |  | 8.56 | 7.67 | 9.72 |  | 
10 | CC(C)n1cc(-c2ccc(O[C@@H]3CC[C@@H](NC(=O)[C@@]4(F)CNC5(CCC5)C4)C3)c(-c3cccc(F)c3C3CCC3)c2)c(C(=O)O)n1 (single isomer, unassigned) [Example J16] |  |  | 7.47 | 10.10 | 8.30 | 
11 | Cc1cc(NS(C)(=O)=O)n(-c2ccc(O[C@@H]3CC[C@@H](NC(=O)[C@@]4(F)CNC5(CCC5)C4)C3)c(-c3cccc(F)c3C3CCC3)c2)n1 (single isomer, unassigned) [Example L3] |  | 8.16 | 7.36 | 9.68 |  | 
12 | CC(C)c1c(F)cccc1-c1cc(CC(=O)O)ccc1O[C@@H]1CC[C@@H](NC(=O)[C@@]2(F)CNC3(CCC3)C2)C1 [Example A32, [3′-fluoro-6-{[(1R,3R)-3-{[(7S)-7-fluoro-5-azaspiro[3.4]octane-7-carbonyl]amino}cyclopentyl]oxy}-2′-(propan-2-yl)[1,1′-biphenyl]-3-yl]acetic acid] |  | 8.35 | 7.50 | 9.08 |  | 
13 | CC(C)c1ccccc1-c1cc(C(=O)O)ccc1O[C@@H]1CC[C@@H](NC(=O)[C@@]2(F)CNC3(CCC3)C2)C1 [Example A39, 6-{[(1R,3R)-3-{[(7S)-7-fluoro-5-azaspiro[3.4]octane-7-carbonyl]amino}cyclopentyl]oxy}-2′-(propan-2-yl)[1,1′-biphenyl]-3-carboxylic acid] |  | 8.19 | 7.53 | 9.46 |  | 
14 | CC(C)(C(=O)NS(C)(=O)=O)c1ccc(O[C@@H]2CC[C@@H](NC(=O)[C@@]3(F)CNC4(CCC4)C3)C2)c(-c2cccc(F)c2C2CCC2)c1 [Example C1, (7S)—N-{(1R,3R)-3-[(2′-cyclobutyl-3′-fluoro-5-{1-[(methanesulfonyl)amino]-2-methyl-1-oxopropan-2-yl}[1,1′-biphenyl]-2-yl)oxy]cyclopentyl}-7-fluoro-5-azaspiro[3.4]octane-7-carboxamide] |  | 7.74 | 7.43 | 9.37 |  | 

Continued by rising pIC50 (MM.1S cells; Homo sapiens, MM1.S, 240 h), values first:

Row | pKi (KAT2A; [1]) | pIC50 (H3K9AC (HT1080 cells); [2]) | pIC50 (MM.1S cells; Homo sapiens, MM1.S, 240 h) | pKi (KAT2A; [3]) | pIC50 (H3K9AC (HT1080 cells); H3K9AC sandwich ELISA) | pIC50 (MM.1S cells) | Compound
15 |  | 8.33 | 7.72 | 9.68 |  |  | CC(C)S(=O)(=O)NC(=O)C(C)(C)c1ccc(O[C@@H]2CC[C@@H](NC(=O)[C@@]3(F)CNC4(CCC4)C3)C2)c(-c2ccccc2C2CCC2)c1 (single isomer, unassigned) [Example C48]
16 |  | 8.36 | 7.86 | 10.15 |  |  | CCc1c(F)cccc1-c1cc(CC(=O)NS(=O)(=O)C(C)C)ccc1O[C@@H]1CC[C@@H](NC(=O)[C@@]2(F)CNCC(C)(C)C2)C1 (single isomer, unassigned) [Example C67]
17 | 10.05 | 8.21 | 7.99 |  |  |  | CS(=O)(=O)NC(=O)Cc1ccc(O[C@@H]2CC[C@@H](NC(=O)[C@]3(F)CNC4(CCC4)C3)C2)c(-c2cccc(F)c2C2CCC2)c1 (single isomer, unassigned) [Example C38]
18 |  |  | 8.12 | 10.30 | 8.39 |  | CCc1c(F)cccc1-c1cc(CC(=O)NS(=O)(=O)C2(C)CC2)ccc1O[C@@H]1CC[C@@H](NC(=O)[C@@]2(F)CNCC(C)(C)C2)C1 (single isomer, unassigned) [Example C57]
19 |  | 8.66 | 8.28 | 10.10 |  |  | CCS(=O)(=O)NC(=O)Cc1ccc(O[C@@H]2CC[C@@H](NC(=O)[C@@]3(F)CNC4(CCCC4)C3)C2)c(-c2ccccc2C(C)C)c1 (single isomer, unassigned) [Example C63]
20 |  |  | 8.30 | 10.40 | 8.49 |  | CCS(=O)(=O)NC(=O)Cc1ccc(O[C@@H]2CC[C@@H](NC(=O)C3(F)CNCC4(CCC4)C3)C2)c(-c2cccc(F)c2C2CCC2)c1 (single isomer, unassigned) [Example C60]
21 |  | 8.55 | 8.38 | 10.22 |  |  | CC(C)c1c(F)cccc1-c1cc(C(C)(C)C(=O)NS(=O)(=O)C2(C)CC2)ccc1O[C@@H]1CC[C@@H](NC(=O)[C@@]2(F)CNC3(CCC3)C2)C1 (single isomer, unassigned) [Example C43]
22 |  | 9.22 | 8.85 | 9.72 |  |  | CCc1c(F)cccc1-c1cc(CC(=O)NS(=O)(=O)C2(C)CC2)ccc1O[C@@H]1CC[C@@H](NC(=O)[C@@]2(F)CNC3(CCCC3)C2)C1 (single isomer, unassigned) [Example C50]
23 |  | 9.22 | 8.89 | 10.40 |  |  | CC1(S(=O)(=O)NC(=O)Cc2ccc(O[C@@H]3CC[C@@H](NC(=O)[C@@]4(F)CNC5(CCC5)C4)C3)c(-c3cccc(F)c3C3CCC3)c2)CC1 [Example B35, (7ξ)-N-[(1R,3R)-3-({2′-cyclobutyl-3′-fluoro-5-[2-(1-methylcyclopropane-1-sulfonamido)-2-oxoethyl][1,1′-biphenyl]-2-yl}oxy)cyclopentyl]-7-fluoro-5-azaspiro[3.4]octane-7-carboxamide]
24 |  | 9.70 | 9.15 | 10.15 |  |  | CC(C)c1ccccc1-c1cc(CC(=O)NS(=O)(=O)C2(C)CC2)ccc1O[C@@H]1CC[C@@H](NC(=O)[C@@]2(F)CNC3(CCCC3)C2)C1 (single isomer, unassigned) [Example C61]
